In ChEMBL document CHEMBL1149774, “Synthesis of N-(5,7-diamino-3-phenyl-quinoxalin-2-yl)-3,4,5-substituted anilines and N-[4[(5,7-diamino-3-phenylquinoxalin-2-yl)amino]benzoyl]-l-glutamic acid diethyl ester: evaluation of in vitro anti-cancer and anti-folate activities” (Eur J Med Chem, 2008):
The source made the active and inactive calls. The rule behind the calls is not given here.

Assays:
NCI-H322M = assay: Growth inhibition of human NCI-H322M cells after 48 hrs by SRB staining method; assay type: functional
SN12C = assay: Growth inhibition of human SN12C cells after 48 hrs by SRB staining method; assay type: functional
[1] = target: T1, Dihydrofolate reductase (Homo sapiens) (UniProt P00374); assay: Inhibition of human dihydrofolate reductase at 10 uM
T1 sequence (whole entry): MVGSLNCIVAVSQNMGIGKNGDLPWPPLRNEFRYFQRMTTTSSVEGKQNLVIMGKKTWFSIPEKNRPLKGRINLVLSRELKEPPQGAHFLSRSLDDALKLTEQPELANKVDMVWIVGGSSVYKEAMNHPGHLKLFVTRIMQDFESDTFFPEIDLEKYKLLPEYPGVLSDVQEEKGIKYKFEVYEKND

MOLT-4 = assay: Growth inhibition of human MOLT4 cells after 48 hrs by SRB staining method; assay type: functional; conditions: MOLT-4, 48 h; for CC50: read-out: pLC50 (the source's name) (converted); for TGI: read-out: pTGI (converted)
COLO 205 = assay: Growth inhibition of human COLO205 cells after 48 hrs by SRB staining method; assay type: functional; conditions: COLO 205, 48 h; for TGI: read-out: pTGI (converted)
NCI-H522 = assay: Growth inhibition of human NCI-H522 cells after 48 hrs by SRB staining method; assay type: functional; conditions: NCI-H522, 48 h; for TGI: read-out: pTGI (converted)
LOX IMVI = assay: Growth inhibition of human LOX IMVI cells after 48 hrs by SRB staining method; assay type: functional; conditions: for TGI: read-out: pTGI (converted)
HOP-62 = assay: Growth inhibition of human HOP62 cells after 48 hrs by SRB staining method; assay type: functional; conditions: HOP-62, 48 h; for TGI: read-out: pTGI (converted)
HL-60 = assay: Growth inhibition of human HL60 cells after 48 hrs by SRB staining method; assay type: functional; conditions: HL-60, 48 h; for CC50: read-out: pLC50 (the source's name) (converted); for TGI: read-out: pTGI (converted)
UO-31 = assay: Growth inhibition of human UO31 cells after 48 hrs by SRB staining method; assay type: functional; conditions: UO-31, 48 h; for CC50: read-out: pLC50 (the source's name) (converted); for TGI: read-out: pTGI (converted)
Thymidylate synthase = Thymidylate synthase (Homo sapiens, UniProt P04818)
Thymidylate synthase, sequence (P04818 whole entry): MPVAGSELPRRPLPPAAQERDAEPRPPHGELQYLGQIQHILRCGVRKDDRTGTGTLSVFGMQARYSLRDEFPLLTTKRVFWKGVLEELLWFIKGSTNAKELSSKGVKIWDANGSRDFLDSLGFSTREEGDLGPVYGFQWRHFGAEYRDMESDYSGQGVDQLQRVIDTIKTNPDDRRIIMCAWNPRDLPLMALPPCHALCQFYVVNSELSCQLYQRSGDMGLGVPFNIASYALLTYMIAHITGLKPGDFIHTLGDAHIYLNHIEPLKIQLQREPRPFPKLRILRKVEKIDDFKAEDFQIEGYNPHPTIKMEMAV
Description: Inhibition of human thymidylate synthase

SK-MEL-2 = assay: Growth inhibition of human SK-MEL-2 cells after 48 hrs by SRB staining method; assay type: functional; conditions: SK-MEL-2, 48 h; for TGI: read-out: pTGI (converted)
OVCAR-3 = assay: Growth inhibition of human OVCAR-3 cells after 48 hrs by SRB staining method; assay type: functional; conditions: OVCAR-3, 48 h; for TGI: read-out: pTGI (converted)
SW-620 = assay: Growth inhibition of human SW620 cells after 48 hrs by SRB staining method; assay type: functional; conditions: SW-620, 48 h; for CC50: read-out: pLC50 (the source's name) (converted); for TGI: read-out: pTGI (converted)
Malme-3M = assay: Growth inhibition of human MALME-3M cells after 48 hrs by SRB staining method; assay type: functional; conditions: for TGI: read-out: pTGI (converted)
[2] = Growth inhibition of human HS 578T cells after 48 hrs by SRB staining method; assay type: functional; conditions: for CC50: read-out: pLC50 (the source's name) (converted); for TGI: read-out: pTGI (converted)
CCRF-CEM = assay: Growth inhibition of human CCRF-CEM cells after 48 hrs by SRB staining method; assay type: functional; conditions: for CC50: read-out: pLC50 (the source's name) (converted)
OVCAR-5 = assay: Growth inhibition of human OVCAR5 cells after 48 hrs by SRB staining method; assay type: functional; conditions: OVCAR-5, 48 h; for TGI: read-out: pTGI (converted)
SF-539 = assay: Growth inhibition of human SF539 cells after 48 hrs by SRB staining method; assay type: functional; conditions: SF-539, 48 h; for TGI: read-out: pTGI (converted)
OVCAR-4 = assay: Growth inhibition of human OVCAR4 cells after 48 hrs by SRB staining method; assay type: functional; conditions: OVCAR-4, 48 h; for TGI: read-out: pTGI (converted)
NCI-H226 = assay: Growth inhibition of human NCI-H226 cells after 48 hrs by SRB staining method; assay type: functional; conditions: NCI-H226, 48 h; for TGI: read-out: pTGI (converted)
RPMI-8226 = assay: Growth inhibition of human RPMI8226 cells after 48 hrs by SRB staining method; assay type: functional; conditions: RPMI-8226, 48 h; for CC50: read-out: pLC50 (the source's name) (converted); for TGI: read-out: pTGI (converted)
HCT-15 = assay: Growth inhibition of human HCT15 cells after 48 hrs by SRB staining method; assay type: functional; conditions: HCT-15, 48 h; for TGI: read-out: pTGI (converted)
BT-549 = assay: Growth inhibition of human BT549 cells after 48 hrs by SRB staining method; assay type: functional; conditions: BT-549, 48 h
HOP-92 = assay: Growth inhibition of human HOP92 cells after 48 hrs by SRB staining method; assay type: functional; conditions: HOP-92, 48 h
[3] = read-out: pLC50 (the source's name) (converted)

Nc1cc(N)c2nc(-c3ccccc3)c(Nc3ccc(Cl)c(Cl)c3)nc2c1
LC50 (NCI-H322M): 63.1 µM
GI50 (SN12C): 12.6 µM
CC50 (SN12C; [3]): 79.4 µM
TGI (SN12C; read-out: pTGI (converted)): 31.6 µM
Activity [1]: inactive
GI50 (MOLT-4): 4.07 µM
CC50 (MOLT-4): > 100 µM
TGI (MOLT-4): > 100 µM
GI50 (COLO 205): 11.7 µM
LC50 (COLO 205): 85.1 µM
TGI (COLO 205): 31.6 µM
GI50 (NCI-H522): 5.25 µM
LC50 (NCI-H522): 69.2 µM
TGI (NCI-H522): 21.9 µM
GI50 (LOX IMVI): 4.37 µM
LC50 (LOX IMVI): > 100 µM
TGI (LOX IMVI): > 100 µM
GI50 (HOP-62): 17.4 µM
LC50 (HOP-62): 81.3 µM
TGI (HOP-62): 38 µM
GI50 (HL-60): 2.57 µM
CC50 (HL-60): > 100 µM
TGI (HL-60): 72.4 µM
GI50 (UO-31): 11.2 µM
CC50 (UO-31): > 100 µM
TGI (UO-31): 36.3 µM
Ki (Thymidylate synthase): 0.9 µM
GI50 (SK-MEL-2): 2.34 µM
LC50 (SK-MEL-2): 69.2 µM
TGI (SK-MEL-2): 19.1 µM
GI50 (OVCAR-3): 2.95 µM
LC50 (OVCAR-3): 37.2 µM
TGI (OVCAR-3): 10 µM
GI50 (SW-620): 13.2 µM
CC50 (SW-620): > 100 µM
TGI (SW-620): 51.3 µM
GI50 (Malme-3M): 10.2 µM
LC50 (Malme-3M): 57.5 µM
TGI (Malme-3M): 24.5 µM
GI50 [2]: 19.1 µM
CC50 [2]: > 100 µM
TGI [2]: 51.3 µM
GI50 (CCRF-CEM): 1.29 µM
CC50 (CCRF-CEM): > 100 µM
GI50 (OVCAR-5): 28.2 µM
LC50 (OVCAR-5): 85.1 µM
TGI (OVCAR-5): 49 µM
GI50 (SF-539): 17 µM
LC50 (SF-539): 72.4 µM
TGI (SF-539): 35.5 µM
GI50 (OVCAR-4): 11.2 µM
LC50 (OVCAR-4): > 100 µM
TGI (OVCAR-4): 47.9 µM
GI50 (NCI-H226): 17.4 µM
LC50 (NCI-H226): 81.3 µM
TGI (NCI-H226): 38 µM
GI50 (RPMI-8226): 2 µM
CC50 (RPMI-8226): > 100 µM
TGI (RPMI-8226): 4.9 µM
GI50 (HCT-15): 21.4 µM
LC50 (HCT-15): > 100 µM
TGI (HCT-15): > 100 µM

CCOC(=O)CCC(NC(=O)c1ccc(Nc2nc3cc(N)cc(N)c3nc2-c2ccccc2)cc1)C(=O)OCC (stereo not given)
GI50 (NCI-H322M): 41.7 µM
LC50 (NCI-H322M): > 100 µM
TGI (NCI-H322M; read-out: pTGI (converted)): > 100 µM
GI50 (BT-549): 41.7 µM
CC50 (BT-549; [3]): > 100 µM
TGI (BT-549; read-out: pTGI (converted)): > 100 µM
Activity [1]: inactive
GI50 (MOLT-4): 2.4 µM
CC50 (MOLT-4): > 100 µM
TGI (MOLT-4): 7.41 µM
GI50 (COLO 205): 8.91 µM
LC50 (COLO 205): > 100 µM
TGI (COLO 205): > 100 µM
GI50 (HOP-92): 10.7 µM
LC50 (HOP-92): 81.3 µM
TGI (HOP-92; read-out: pTGI (converted)): 29.5 µM
GI50 (NCI-H522): 27.5 µM
LC50 (NCI-H522): > 100 µM
TGI (NCI-H522): > 100 µM
GI50 (LOX IMVI): 8.51 µM
LC50 (LOX IMVI): > 100 µM
TGI (LOX IMVI): > 100 µM
GI50 (HOP-62): 19.5 µM
LC50 (HOP-62): 81.3 µM
TGI (HOP-62): 39.8 µM
GI50 (HL-60): 9.55 µM
CC50 (HL-60): > 100 µM
TGI (HL-60): 51.3 µM
GI50 (UO-31): 21.9 µM
CC50 (UO-31): > 100 µM
TGI (UO-31): 75.9 µM
Ki (Thymidylate synthase): 34 µM
GI50 (SK-MEL-2): 7.76 µM
LC50 (SK-MEL-2): > 100 µM
TGI (SK-MEL-2): 74.1 µM
GI50 (OVCAR-3): 8.51 µM
LC50 (OVCAR-3): > 100 µM
TGI (OVCAR-3): 31.6 µM
GI50 (SW-620): 40.7 µM
CC50 (SW-620): > 100 µM
TGI (SW-620): > 100 µM
GI50 (Malme-3M): 2.82 µM
LC50 (Malme-3M): > 100 µM
TGI (Malme-3M): 6.17 µM
GI50 [2]: 33.9 µM
CC50 [2]: > 100 µM
TGI [2]: 75.9 µM
GI50 (CCRF-CEM): 2.95 µM
CC50 (CCRF-CEM): > 100 µM
TGI (CCRF-CEM; read-out: pTGI (converted)): > 100 µM
GI50 (OVCAR-5): 34.7 µM
LC50 (OVCAR-5): > 100 µM
TGI (OVCAR-5): 87.1 µM
GI50 (SF-539): 27.5 µM
LC50 (SF-539): > 100 µM
TGI (SF-539): > 100 µM
GI50 (OVCAR-4): 26.9 µM
LC50 (OVCAR-4): > 100 µM
TGI (OVCAR-4): > 100 µM
GI50 (NCI-H226): 26.9 µM
LC50 (NCI-H226): > 100 µM
TGI (NCI-H226): 55 µM
GI50 (RPMI-8226): 3.16 µM
CC50 (RPMI-8226): > 100 µM
TGI (RPMI-8226): > 100 µM
GI50 (HCT-15): 23.4 µM
LC50 (HCT-15): > 100 µM
TGI (HCT-15): > 100 µM
